According to patent US20220042962A1, “METHOD FOR […] SITE-[…] WATER QUALITY […] OF RIVER BASIN” (DALIAN UNIVERSITY OF TECHNOLOGY, priority 2020, published 2022):

Tested on: aquatic species in Liaohe River Basin
Test: Derivation of site-specific water quality criterion (species sensitivity distribution and toxicity sorting)

**Q.** Which results are given for ammonia nitrogen?
**A.** water quality criterion value derived by the toxicity sorting method (Liaohe River Basin, four most sensitive resident sensitive and endemic species): 15.91 mg/L; water quality criterion value derived by the species sensitivity method (Liaohe River Basin, safety coefficient 2): 13.47 mg/L; water quality criterion value (validation value) (Liaohe River Basin, weights 0.3 and 0.7, pH=7.0 and temperature=20° C.): 15.18 mg/L; X value at Y=0.05 transformed to a base-10 exponent (logistic SSD model, before division by safety coefficient 2): 26.93 mg/L; X (log10 toxicity value) at Y=0.05 on the logistic SSD fitting curve (logistic model, cumulative probability Y=0.05, pH=7.0, temperature=20° C.): 1.4302
